Patent publication US20240277698A1, “METHODS OF USING ALDOSTERONE SYNTHASE INHIBITORS” (CINCOR PHARMA, INC., priority 2021, published 2024)

Molecular target: T1, aldosterone synthase (Homo sapiens, UniProt P19099)
T1 construct: synthesized in the adrenal cortex by aldosterone synthase; endogenous in cells; host or cells: adrenal cortex of healthy human subjects (in vivo, oral dosing)
T1 sequence (P19099 25-503): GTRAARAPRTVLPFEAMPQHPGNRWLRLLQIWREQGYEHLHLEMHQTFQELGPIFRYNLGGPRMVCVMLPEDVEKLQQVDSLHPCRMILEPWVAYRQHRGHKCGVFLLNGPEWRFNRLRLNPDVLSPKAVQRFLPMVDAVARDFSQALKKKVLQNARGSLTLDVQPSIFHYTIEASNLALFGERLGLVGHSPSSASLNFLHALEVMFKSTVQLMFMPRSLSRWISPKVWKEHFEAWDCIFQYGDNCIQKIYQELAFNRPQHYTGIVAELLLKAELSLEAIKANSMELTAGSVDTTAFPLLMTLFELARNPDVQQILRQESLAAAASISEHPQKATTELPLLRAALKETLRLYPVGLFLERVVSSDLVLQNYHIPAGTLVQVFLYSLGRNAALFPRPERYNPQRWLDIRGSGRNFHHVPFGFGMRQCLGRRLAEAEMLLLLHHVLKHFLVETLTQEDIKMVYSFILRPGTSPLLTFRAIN
Experiment: MAD study: plasma aldosterone and precursors (18-hydroxycorticosterone, corticosterone, 11-deoxycorticosterone)
Format: in vivo
Details: for Plasma 11-deoxycorticosterone, Day −1 predose / Plasma 18-hydroxycorticosterone, Day −1 predose / Plasma aldosterone, Day −1 predose / Plasma corticosterone, Day −1 predose: baseline; for inhibition of aldosterone synthesis: normal salt diet and low salt diet, 10-day dosing
From the text: For each subject, the study consisted of: • A screening period of up to 28 days; • A 5-day inpatient run-in period during which subjects adhered to a controlled, standardized diet and underwent baseline PD assessments; • A 15-day inpatient treatment period, during which subjects received (R)-compound 1 or placebo once daily for 10 days while adhering to a controlled, standardized diet, followed by PK and PD sampling over an additional 5 days; and • A follow-up visit 3 days (1 day) after discharge from the clinical unit. • A cortisol stimulation test (Cohorts 1 and 2 only) and standing aldosterone assessment (all cohorts) were performed on Days 1 and 10. Serial blood samples for PK and PD were obtained prior to and at specified time points over 24 hours after dosing on Day 1 as well as prior to and at specified time points over 120 hours after dosing on Day 10. In addition, blood samples for PK were collected prior to dosing on Days 8 and 9. Urine for PK and PD measurements was collected over 24 hours starting just prior to dosing on Day 1 as well as over 120 hours starting just prior to dosing on Day 10. […]

[1] = 2.5 mg QD, normal salt diet, mean

## CCC(=O)N[C@@H]1CCCc2c(-c3ccc4c(c3)CCC(=O)N4C)cncc21 [(R)-Compound 1, (R)—N-(4-(1-methyl-2-oxo-1,2,3,4-tetrahydroquinolin-6-yl)-5,6,7,8-tetrahydroisoquinolin-8-yl)propionamide]
2.5 mg QD, low salt diet, mean
  Plasma 18-hydroxycorticosterone, Day 10, 24 hours postdose: 961.8 pg/mL
  Plasma 18-hydroxycorticosterone, Day 10, predose: 895.4 pg/mL
  Plasma 18-hydroxycorticosterone, Percent change from Day −1 to Day 10: −22.0%
  Plasma aldosterone, Day 1, 12 hours postdose: 48.013 pg/mL
  Plasma aldosterone, Day 1, predose: 151.988 pg/mL
  Plasma aldosterone, Day 10, 12 hours postdose: 69.100 pg/mL
  Plasma aldosterone, Day 10, 24 hours postdose: 112.213 pg/mL
  Plasma aldosterone, Day 10, predose: 97.538 pg/mL
  Plasma aldosterone, Percent change from Day −1 to Day 10, predose: −56.540%
  Plasma corticosterone, Day 1, 12 hours postdose: 1653.4 pg/mL
  Plasma corticosterone, Day 1, predose: 3711.5 pg/mL
  Plasma corticosterone, Day 10, 12 hours postdose: 3412.5 pg/mL
  Plasma corticosterone, Day 10, 24 hours postdose: 10012.5 pg/mL
  Plasma corticosterone, Day 10, predose: 7190.0 pg/mL
  Plasma corticosterone, Percent change from Day −1 to Day 10, predose: 132.0%
[1]
  Plasma 11-deoxycorticosterone, Day −1 predose: 50.017 pg/mL
  Plasma 18-hydroxycorticosterone, Day −1 predose: 1185.8 pg/mL
  Plasma aldosterone, Day −1 predose: 153.667 pg/mL
  Plasma corticosterone, Day −1 predose: 6395.0 pg/mL
  Plasma 11-deoxycorticosterone, Day 1, 12 hours postdose: 23.667 pg/mL
  Plasma 11-deoxycorticosterone, Day 1, predose: 53.200 pg/mL
  Plasma 11-deoxycorticosterone, Day 2, predose: 69.617 pg/mL
  Plasma 11-deoxycorticosterone, Day 10, 12 hours postdose: 93.780 pg/mL
  Plasma 11-deoxycorticosterone, Day 10, 24 hours postdose: 177.400 pg/mL
  Plasma 11-deoxycorticosterone, Day 10, predose: 130.680 pg/mL
  Plasma 11-deoxycorticosterone, Percent change from Day −1 to Day 10, predose: 171.567%
  Plasma 18-hydroxycorticosterone, Day 1, 12 hours postdose: 267.3 pg/mL
  Plasma 18-hydroxycorticosterone, Day 1, predose: 1087.0 pg/mL
  Plasma 18-hydroxycorticosterone, Day 2, predose: 901.2 pg/mL
  Plasma 18-hydroxycorticosterone, Day 10, 12 hours postdose: 345.6 pg/mL
  Plasma 18-hydroxycorticosterone, Day 10, 24 hours postdose: 1238.0 pg/mL
  Plasma 18-hydroxycorticosterone, Day 10, predose: 1073.4 pg/mL
  Plasma 18-hydroxycorticosterone, Percent change from Day −1 to Day 10: −10.4%
  Plasma aldosterone, Day 1, 12 hours postdose: 16.535 pg/mL
  Plasma aldosterone, Day 1, predose: 131.250 pg/mL
  Plasma aldosterone, Day 2, predose: 37.700 pg/mL
  Plasma aldosterone, Day 10, 12 hours postdose: 46.360 pg/mL
  Plasma aldosterone, Day 10, 24 hours postdose: 120.740 pg/mL
  Plasma aldosterone, Day 10, predose: 101.880 pg/mL
  Plasma aldosterone, Percent change from Day −1 to Day 10, predose: −34.296%
  Plasma corticosterone, Day 1, 12 hours postdose: 889.0 pg/mL
  Plasma corticosterone, Day 1, predose: 5828.3 pg/mL
  Plasma corticosterone, Day 2, predose: 6328.3 pg/mL
  Plasma corticosterone, Day 10, 12 hours postdose: 2704.0 pg/mL
  Plasma corticosterone, Day 10, 24 hours postdose: 11182.0 pg/mL
  Plasma corticosterone, Day 10, predose: 8102.0 pg/mL
  Plasma corticosterone, Percent change from Day −1 to Day 10, predose: 60.6%
5.0 mg QD, low salt diet, mean
  Plasma 11-deoxycorticosterone, Day −1 predose: 49.111 pg/mL
  Plasma 18-hydroxycorticosterone, Day −1 predose: 966.3 pg/mL
  Plasma aldosterone, Day −1 predose: 189.633 pg/mL
  Plasma corticosterone, Day −1 predose: 3700.7 pg/mL
  Plasma 11-deoxycorticosterone, Day 1, 12 hours postdose: 94.622 pg/mL
  Plasma 11-deoxycorticosterone, Day 1, predose: 55.789 pg/mL
  Plasma 11-deoxycorticosterone, Day 10, 12 hours postdose: 219.700 pg/mL
  Plasma 11-deoxycorticosterone, Day 10, 24 hours postdose: 308.444 pg/mL
  Plasma 11-deoxycorticosterone, Day 10, predose: 218.611 pg/mL
  Plasma 11-deoxycorticosterone, Percent change from Day −1 to Day 10, predose: 573.144%
  Plasma 18-hydroxycorticosterone, Day 1, 12 hours postdose: 162.3 pg/mL
  Plasma 18-hydroxycorticosterone, Day 1, predose: 825.8 pg/mL
  Plasma 18-hydroxycorticosterone, Day 10, 12 hours postdose: 405.2 pg/mL
  Plasma 18-hydroxycorticosterone, Day 10, 24 hours postdose: 1298.0 pg/mL
  Plasma 18-hydroxycorticosterone, Day 10, predose: 1159.6 pg/mL
  Plasma 18-hydroxycorticosterone, Percent change from Day −1 to Day 10: 38.2%
  Plasma aldosterone, Day 1, 12 hours postdose: 17.511 pg/mL
  Plasma aldosterone, Day 1, predose: 182.800 pg/mL
  Plasma aldosterone, Day 10, 12 hours postdose: 49.467 pg/mL
  Plasma aldosterone, Day 10, 24 hours postdose: 125.811 pg/mL
  Plasma aldosterone, Day 10, predose: 98.367 pg/mL
  Plasma aldosterone, Percent change from Day −1 to Day 10, predose: −36.400%
  Plasma corticosterone, Day 1, 12 hours postdose: 890.3 pg/mL
  Plasma corticosterone, Day 1, predose: 2726.3 pg/mL
  Plasma corticosterone, Day 10, 12 hours postdose: 4738.9 pg/mL
  Plasma corticosterone, Day 10, 24 hours postdose: 13976.7 pg/mL
  Plasma corticosterone, Day 10, predose: 11962.2 pg/mL
  Plasma corticosterone, Percent change from Day −1 to Day 10, predose: 460.2%
Low salt diet and normal salt diet
  doses that markedly decrease aldosterone levels: > 0.5 mg
  inhibition of aldosterone synthesis: marked, sustained, selective, and generally dose dependent inhibition
Listed as (R)-compound 1
  inhibition of aldosterone synthesis: marked, sustained, selective, and generally dose dependent inhibition
